According to patent publication US20080287490A1, “Bis-pyridino containing compounds for the use in the treatment of CNS pathologies” (UNIVERSITY OF KENTUCKY RESEARCH FOUNDATION, priority 2005, published 2008):
Where two headings read alike, the source gives them in different places.

Tests used:
[1] = target: blood-brain barrier choline transporter; type: in vivo, rat
Procedure: Blood-brain barrier choline transporter affinity assays. Quaternary ammonium analogs were evaluated for their ability to inhibit [^3H]-choline uptake into brain providing an indication of the ability of these analogs to interact with the choline transporter. These assays were conducted using the in situ rat brain perfusion method of Takasato, et al., Am. J. Physiol. 1984, 247, 484, as modified by Allen and Smith, J. Neurochem., 2001, 76, 1032. […] Ki values were compared by ANOVA followed by Bonferoni's multiple comparisons test to determine if an analog inhibits [^3H]-choline uptake.
Analog affinity for, and transport by, the blood-brain barrier choline transporter.

[2] = tested on: nAChR subtypes mediating nicotine-evoked DA release; assay: Analog-evoked [^3H]DA overflow (intrinsic activity) from superfused striatal slices; type: cell-based, rat
[3] = tested on: nAChR subtypes mediating nicotine-evoked [^3H]-dopamine overflow
Procedure: [^3H]-Dopamine overflow from superfused striatal slices. […] Striatal coronal slices (500 μm, 4-6 mg) were obtained and incubated for 30 minutes in Krebs' buffer (in mM: 118 NaCl, 4.7 KCl, 1.2 MgCl2, 1 NaH2PO4, 1.3 CaCl2, 11.1 glucose, 25 NaHCO3, 0.11 L-ascorbic acid and 0.004 disodium EDTA, pH 7.4, saturated with 95% O2/5% CO2) in a metabolic shaker at 34° C. Slices were incubated with 0.1 μM (final concentration) of [^3H]-dopamine during the latter 30 minutes of the 60-minute incubation period. Each slice was transferred to a glass superfusion chamber maintained at 34° C. and superfused (1 ml/min) with Krebs' buffer containing nomifensine (10 μM) and pargyline (10 μM) to inhibit [^3H]-dopamine reuptake after release into the extracellular space, ensuring that [^3H]-overflow primarily represented [^3H]-dopamine. Sample collection (5-minute; 5 mL) began after 60 minutes of superfusion. […] At the end of the experiment, each slice was solubilized, and the [^3H]-content of the tissue determined. Release during each minute was normalized for total tissue [^3H]-content. Analog-induced intrinsic activity and inhibitory activity were determined using slices from the same rat (repeated-measures design).
The amount of [^3H] in each sample was calculated by dividing the total [^3H] collected in each sample by the total in the tissue at the time of sample collection (defined as fractional release). […] Data were analyzed by weighted, least squares regression analysis of the sigmoidal concentration-effect curves to obtain EC50 and IC50 values.
Striatal slices (500 μm, 4-6 mg) were incubated for 30 minutes in Krebs' buffer (in mM: 118 NaCl, 4.7 KCl, 1.2 MgCl2, 1 NaH2PO4, 1.3 CaCl2, 11.1 glucose, 25 NaHCO3, 0.11 L-ascorbic acid and 0.004 disodium EDTA, pH 7.4, saturated with 95% O2/5% CO2) in a metabolic shaker at 34° C. Slices were incubated with 0.1 μM (final concentration) [^3H]DA during the latter 30 minutes of the 60-minute incubation period. Each slice was transferred to a glass superfusion chamber maintained at 34° C. and superfused (1 ml/min) with Krebs' buffer containing nomifensine (10 μM) and pargyline (10 μM) to inhibit [^3H]DA reuptake and metabolism, respectively, after release into the extracellular space, ensuring that [^3H]overflow primarily represents [^3H]DA. Sample collection (5-minute; 5 ml) began after 60 minutes of superfusion. […] Thus, the ability of these analogs to elicit intrinsic activity (evoke [^3H]DA overflow) was determined. At the end of the experiment, each slice was solubilized and [^3H]content of the tissue determined. Release during each minute was normalized for total [^3H]content of the slice. Analog-induced intrinsic activity and inhibitory activity were determined using slices from the same rat (repeated-measures design).
Fractional release was calculated by dividing the total tritium collected in each sample by the total tritium in the tissue at the time of sample collection. […] Typically, data were analyzed by weighted, least squares regression analysis of sigmoidal concentration-effect curves to obtain EC50 and IC50 values.

[4] = target: T1, Rat Striatal Nicotinic Acetylcholine Receptors ([^3H]nicotine binding sites) (Rattus norvegicus, UniProt P09483+P12390); assay: biochemical; conditions: rat striatal membranes, 3 nM [^3H]-nicotine; read-out: Ki, specific binding of [^3H]-nicotine
T1 construct: Striata from two rats were dissected, pooled, and homogenized; from tissue; host or cells: rat striatum membranes
T1 sequence (P09483 31-630): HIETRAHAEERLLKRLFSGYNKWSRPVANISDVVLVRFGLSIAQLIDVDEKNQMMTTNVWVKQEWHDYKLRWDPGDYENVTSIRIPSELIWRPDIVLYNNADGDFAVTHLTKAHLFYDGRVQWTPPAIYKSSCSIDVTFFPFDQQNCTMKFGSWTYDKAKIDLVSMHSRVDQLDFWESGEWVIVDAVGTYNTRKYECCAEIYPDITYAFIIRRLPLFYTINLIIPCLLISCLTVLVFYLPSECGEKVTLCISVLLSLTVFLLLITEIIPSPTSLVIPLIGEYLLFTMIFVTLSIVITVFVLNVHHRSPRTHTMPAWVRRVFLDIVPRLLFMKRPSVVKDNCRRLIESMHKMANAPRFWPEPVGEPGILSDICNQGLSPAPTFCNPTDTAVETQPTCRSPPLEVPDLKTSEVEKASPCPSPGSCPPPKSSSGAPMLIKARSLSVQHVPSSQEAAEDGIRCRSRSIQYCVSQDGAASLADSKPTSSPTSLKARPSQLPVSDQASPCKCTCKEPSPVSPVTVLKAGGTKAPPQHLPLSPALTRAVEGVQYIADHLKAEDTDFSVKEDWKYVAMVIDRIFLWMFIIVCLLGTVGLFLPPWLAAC
T1 sequence (P12390 25-500): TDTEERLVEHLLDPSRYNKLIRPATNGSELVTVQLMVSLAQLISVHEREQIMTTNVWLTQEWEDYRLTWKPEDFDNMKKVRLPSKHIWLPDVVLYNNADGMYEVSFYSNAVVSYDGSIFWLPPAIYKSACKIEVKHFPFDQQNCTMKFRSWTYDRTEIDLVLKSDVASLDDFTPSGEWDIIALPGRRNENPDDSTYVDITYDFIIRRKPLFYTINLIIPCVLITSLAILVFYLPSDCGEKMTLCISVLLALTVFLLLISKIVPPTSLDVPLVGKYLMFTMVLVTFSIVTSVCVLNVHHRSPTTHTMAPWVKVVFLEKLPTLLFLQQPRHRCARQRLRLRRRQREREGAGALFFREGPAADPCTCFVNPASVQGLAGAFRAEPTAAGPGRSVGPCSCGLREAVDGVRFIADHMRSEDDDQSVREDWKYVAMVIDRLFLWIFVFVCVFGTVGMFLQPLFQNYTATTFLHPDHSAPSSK
Procedure: Striata from two rats were dissected, pooled, and homogenized with a Tekmar polytron in 10 volumes of ice-cold modified Krebs-HEPES buffer (20 mM HEPES, 118 mM NaCl, 4.8 mM KCl, 2.5 mM CaCl2, 1.2 mM MgSO4, adjusted to pH 7.5). The homogenates were incubated at 37° C. for five minutes and centrifuged at 15,000 g for 20 minutes. The pellet was resuspended in ten volumes of ice-cold MilliQ water, incubated for five minutes at 37° C., and centrifuged at 15,000 g for 20 minutes The second pellet was then resuspended in ten volumes of fresh ice-cold 10% Krebs-HEPES buffer, incubated at 37° C., and centrifuged at 15,000 g for 20 minutes. The latter sequence of resuspension, incubation, and centrifugation was repeated. The pellet was frozen under fresh 10% Krebs-HEPES buffer and stored at −40° C. until assay. Upon assay, the pellet was resuspended in the Krebs-HEPES buffer, incubated at 37° C. for five minutes, and centrifuged at 15,000 g for 20 minutes. The final pellet was resuspended in 3.6 ml ice-cold MilliQ water which provided for approximately 200 μg protein per 100 μl aliquot. Competition assays were performed in duplicate in a final volume of 200 μl Krebs-HEPES buffer containing […] Tris buffer (pH 7.5 at 4° C.). […] After a 90 minute incubation at 4° C., reactions were terminated by dilution of the samples with 3 ml of ice-cold Krebs-HEPES buffer followed immediately by filtration through Whatman GF/B glass fiber filters (presoaked in 0.5% polyethyleneimine) using a Brandel Cell Harvester. Filters were rinsed three times with 3 ml of ice-cold Krebs-HEPES buffer, transferred to scintillation vials, and 5 ml scintillation cocktail (Research Products International Corp., Mt. Prospect, Ill.) added. […] Binding parameters were determined using the weighted, least squares non-linear regression.

[5] = tested on: nAChR mediating nicotine-evoked [^3H]DA release (α3β2* receptor subtype); type: cell-based, rat; conditions: rat striatal slices, nicotine 10 μM; read-out: IC50, S-(−)-nicotine-evoked [^3H]DA release
Procedure: Slices were rinsed with 15 mL of fresh buffer and incubated for an additional 30 minutes in fresh buffer containing 0.1 μM [^3H]DA (6 slices/3 ml). Subsequently, slices were rinsed with 15 ml of fresh buffer and transferred to a glass superfusion chamber.
Radioactivity in the superfusate and tissue samples was determined by liquid scintillation spectroscopy. […] Basal [^3H]outflow was calculated from the average of the tritium collected in the two five minute samples just before addition of the bis-alkyl pyridino analog. […] [^3H]Overflow was calculated by subtracting the [^3H]outflow during an equivalent period of prestimulation from the values in samples collected during and after drug exposure. Inasmuch as the radiolabelled compounds were not separated and identified, the tritium collected in superfusate is referred to as either [^3H]outflow or [^3H]overflow, rather than as [^3H]DA.

[6] = target: T2, α7-type neuronal nicotinic acetylcholine receptors (Rattus norvegicus, UniProt Q05941); assay: biochemical; conditions: rat brain membranes, 2.5 nM [^3H]-MLA; read-out: Ki, [^3H]MLA binding
T2 construct: Rat brain was dissected into the whole brain tissue without cortex, striatum and cerebellum; from tissue; host or cells: rat brain (without cortex, striatum, cerebellum) membranes
T2 sequence (Q05941 23-502): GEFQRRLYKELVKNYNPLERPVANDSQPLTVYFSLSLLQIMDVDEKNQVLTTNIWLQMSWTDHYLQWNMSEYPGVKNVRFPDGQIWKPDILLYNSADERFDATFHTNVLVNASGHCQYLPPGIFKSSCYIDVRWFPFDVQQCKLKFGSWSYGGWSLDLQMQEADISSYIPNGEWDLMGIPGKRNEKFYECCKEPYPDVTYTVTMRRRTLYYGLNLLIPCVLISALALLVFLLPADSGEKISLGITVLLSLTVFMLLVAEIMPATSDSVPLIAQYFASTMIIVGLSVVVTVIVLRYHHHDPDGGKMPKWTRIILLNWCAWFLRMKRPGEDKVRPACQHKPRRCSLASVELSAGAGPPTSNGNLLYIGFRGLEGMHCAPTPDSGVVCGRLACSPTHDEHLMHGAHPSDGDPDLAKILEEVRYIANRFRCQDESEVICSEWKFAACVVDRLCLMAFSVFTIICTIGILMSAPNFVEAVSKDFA

[7] = target: T3, α7* nAChRs (Rattus norvegicus, UniProt Q05941); assay: biochemical
T3 sequence (Q05941 23-502): as above
Procedure: (§1) Whole brain, excluding cortex and cerebellum, was homogenized in 20 ml of ice-cold buffer, containing (in mM): 2 HEPES, 11.8 NaCl, 0.48 KCl, 0.25 CaCl2 and 0.12 MgSO4, pH 7.5. Homogenate was centrifuged (25,000 g, 15 minutes, 4° C.). Pellets were resuspended in 20 ml of buffer and incubated at 37° C., for ten minutes, cooled to 4° C. and centrifuged (25,000 g, 15 minutes, 4° C.). Pellets were resuspended and centrifuged using the same conditions. Final pellets were stored in assay buffer, containing (in mM): 20 HEPES, 118 NaCl, 4.8 KCl, 2.5 CaCl2, and 1.2 MgSO4) pH 7.5 at −70° C. Upon use, final pellets were resuspended in ˜20 ml assay buffer. […] Control was in the absence of analog. […] Incubations proceeded for 60 minutes at room temperature using 96-well plates and were terminated by harvesting on Unifilter-96 GF/B filter plates presoaked in 0.5% polyethylenimine, using a Packard FilterMate harvester.
(§2) After washing five times with 350 μl ice-cold assay buffer, filter plates were dried (60 minutes, 49° C.), bottom-sealed, and filled with Packard's MicroScint 20 cocktail (40 μl/well). After 60 minutes, filter plates were top-sealed, and radioactivity determined using a Packard TopCount. Protein concentrations were determined using bovine serum albumin as the standard.
(§3) Whole brain was homogenized in 20 ml of ice-cold buffer (in mM: 2 HEPES, 11.8 NaCl, 0.48 KCl, 0.25 CaCl2, and 0.12 MgSO4, pH 7.5). Homogenates were centrifuged (25,000 g, 15 minutes, 4° C.). Pellets were resuspended in 20 ml of buffer and incubated at 37° C., for 10 minutes, cooled to 4° C. and centrifuged (25,000 g, 15 minutes, 4° C.). Pellets were resuspended and centrifuged again using the same conditions. Final pellets were stored at −70° C. in assay buffer (in mM: 20 HEPES, 118 NaCl, 4.8 KCl, 2.5 CaCl2, and 1.2 MgSO4, pH 7.5). Upon use, final pellets were resuspended in ˜20 ml assay buffer. […] Control was in the absence of analog. […] Incubation proceeded for 60 minutes at room temperature using 96-well plates and was terminated by harvesting on Unifilter-96 GF/B filter plates, presoaked in 0.5% polyethylenimine, using a Packard FiterMate harvester. After washing 5× with 350 μl ice-cold assay buffer, filter plates were dried (60 minutes, 49° C.), bottom-sealed, and filled with Packard's MicroScint 20 cocktail (40 μl/well). After 60 minutes, filter plates were top-sealed, and radioactivity determined. Protein concentration was determined using BSA as the standard.

[8] = target: α4β2* nAChRs (Rattus norvegicus, UniProt P09483+P12390); conditions: for mode of interaction with the high affinity [^3H]-nicotine binding site (Scatchard analyses): no change in Bmax
α4β2* nAChRs, sequence (P09483 31-630): as the sequence (P09483 31-630) above
α4β2* nAChRs, sequence (P12390 25-500): as the sequence (P12390 25-500) above
Procedure: as §1, §2, §3

[9] = target: T2, α7-type neuronal nicotinic acetylcholine receptors; type: binding; conditions: rat brain membranes, […] [^3H]-MLA; read-out: Ki, [^3H]MLA binding
Procedure: Rat brain was dissected into the whole brain tissue without cortex, striatum and cerebellum and was frozen in liquid nitrogen and stored at −70° C. until use.
The brain tissue was homogenized with a Tekmar Polytron (setting 40) in 20 volumes of ice-cold hypotonic buffer (2 mM HEPES, 14.4 mM NaCl, 0.15 mM KCl, 0.2 mM CaCl2 and 0.1 mM MgSO4, pH=7.5). The homogenate was incubated at 37° C. for ten minutes and centrifuged at 25,000×g for 15 minutes at […] The pellet was washed three times more by resuspension in the 20 volumes of the same buffer and centrifugation at the above parameters. The final pellet was stored at −20° C. under 4.6 ml of the incubation buffer and was suspended just before the incubation with radioligand.
[^3H]MLA (25.4 Ci/mmol) was purchased from Tocris Cookson Ltd., Bristol, U.K. Binding was performed in duplicate, in a final volume of 250 μl of the incubation medium, containing 20 mM HEPES, 144 mM NaCl, 1.5 mM KCl, 2 mM CaCl2, 1 mM MgSO4 and 0.05% BSA, pH=7.5. Reaction was initiated by the addition of 100 μl of membrane suspension to the samples containing a desired concentration of test compounds and […] [^3H] MLA (final concentration) and incubated for 2 hours at room temperature. […] The binding reaction was terminated by dilution of samples with 3 ml of ice-cold incubation buffer followed by immediate filtration through presoaked in 0.5% polyethylenimine glass fiber filters (S&S, grade #32) using a Brandel harvester system. Filters were rinsed three times with 3 ml of ice-cold buffer, transferred to scintillation-vials and 4 ml of scintillation cocktail was added. Protein was measured using the Bradford dye-binding procedure with bovine serum albumin as the standard.

[10] = target: T3, α7* nAChRs; conditions: read-out: [^3H]MLA Binding Ki; Table 4; mean (95% confidence interval)
Procedure: as §1, §2, §3

[11] = Table 8, single inhibitor concentration 10 or 250 μM, mean (standard error), read-out: Ki, affinity for the blood brain barrier choline transporter
[12] = read-out: apparent Ki, inhibition of [^3H]-choline uptake into brain
[13] = 500 μM choline in perfusion fluid

CCCCCC[N+](C)(C)CCO [N-n-Hexylcholine, reference compound]
Ki [1, 11]: 2.2 µM

CCCCCCCC[N+](C)(C)CCO [N-n-Octylcholine, reference compound]
Ki [1, 11]: 1.7 µM

CCCCCCCC[n+]1ccccc1 [N-n-Octylpyridinium iodide]
Ki [1, 11]: 32 µM

CCCC[n+]1cccc(C2CCCN2C)c1 (stereo not drawn) [NBNI]
Ki [1, 12]: 777 ± 588 µM

CCCCCCCCCCCC[n+]1cccc(C)c1.[I-] [NDDPiI]
concentration evoking [^3H]DA overflow (intrinsic activity) [2]: ≥ 1.0 µM | maximal inhibition (Imax) of nicotine-evoked [^3H]DA overflow [3]: 63% | IC50 ([3]; read-out: IC50, inhibition of nicotine-evoked [^3H]dopamine release/overflow): 0.03 µM

CCCCCCCCCC[n+]1cccc(C2CCCN2C)c1 (stereo not drawn) [NDNI]
Ki [4]: 0.11 µM | IC50 [5]: > 100 µM | Ki [1, 12]: 27 µM | Ki [6]: > 100 µM | Ki [7]: > 100 µM | Ki ([8]; [^3H]Nicotine Binding Ki, Table 4, mean (95% confidence interval)): 0.09 µM | Ki ([8]; affinity for [^3H]-nicotine binding sites): ~0.09 µM | mode of interaction with the high affinity [^3H]-nicotine binding site (Scatchard analyses) [8]: competitive manner | inhibitory activity at the nAChR subtype mediating nicotine-evoked dopamine release [3]: does not exhibit inhibitory activity

CN1CCCC1c1ccc[n+](C)c1 (stereo not drawn) [NMNI]
Ki [1, 12]: > 1000 µM

CCCCCCCC[n+]1cccc([C@@H]2CCCN2C)c1.[I-] [NONI]
Ki [9]: > 100 µM | IC50 [5]: 0.62 µM | Ki ([1]; rat, in vivo, read-out: apparent Ki, inhibition of [^3H]-choline uptake into brain): 49 µM | Ki [10]: 12 µM | decrease of PA for [^3H]-NONI [13]: ~25% | permeability-surface area product (PA) for [^3H]-NONI [13]: 1.24±0.5×10^−3 ml/s/g | uptake (PA) of [^3H]-NONI (5 mM choline in perfusion fluid): 7.55±3.30×10^−4 ml/s/g | permeability-surface area product (PA) for [^3H]-NONI (no inhibitors present, single time point): 1.64±0.37×10^−3 ml/s/g | transfer coefficient value (Kin) for [^3H]-NONI uptake (rat brain, 0-60 seconds, absence of unlabeled NONI): 1.59±0.14×10^−3 ml/s/g | inhibition of [^3H]-NONI brain uptake by unlabeled NONI (unlabeled NONI 250 μM in perfusion fluid, 45 seconds uptake): 46% | mode of interaction with the high affinity [^3H]-nicotine binding site (Scatchard analyses) [8]: competitive manner | mode of interaction with nAChRs mediating nicotine-evoked dopamine release (Schild analysis) [3]: competitive manner | IC50 ([3]; read-out: Nicotine-evoked [^3H]DA Overflow IC50, Table 4, mean (95% confidence interval)): 0.62 µM
